Source: ChEMBL document CHEMBL1201862, “PubChem BioAssay data set” (2004)
Activity calls are given as the source filed them.

Experiments:
[1] = target: Induced myeloid leukemia cell differentiation protein Mcl-1 (Homo sapiens, UniProt Q07820); assay: MCL1-BIM BH3 interaction inhibitors, dose response, biochemical, fluorescence polarization, BIM-BH3 peptide, 1536-well (AID 2217)
Bcl-2-like protein 1 = Bcl-2-like protein 1 (Homo sapiens, UniProt Q07817); assay: BCL-XL inhibitors, dose response, selectivity assay for MCL1 inhibitor project, biochemical, fluorescence polarization, 1536-well (AID 2218)
Bcl-2-like protein 1, sequence (Q07817 whole entry): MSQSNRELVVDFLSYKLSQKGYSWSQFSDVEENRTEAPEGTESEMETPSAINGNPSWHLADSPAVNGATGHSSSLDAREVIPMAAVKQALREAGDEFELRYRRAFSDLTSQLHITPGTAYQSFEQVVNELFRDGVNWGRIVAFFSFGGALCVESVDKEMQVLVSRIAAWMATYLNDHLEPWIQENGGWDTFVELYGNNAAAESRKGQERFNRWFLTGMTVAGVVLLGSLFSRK

Protein Tat = target: T1, Protein Tat (Human immunodeficiency virus type 1 group M subtype B (isolate HXB2)(HIV-1), UniProt P04608); assay type: functional;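 note: tat binding to TAR RNA read out by fluorescence polarization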
T1 sequence (P04608 whole entry): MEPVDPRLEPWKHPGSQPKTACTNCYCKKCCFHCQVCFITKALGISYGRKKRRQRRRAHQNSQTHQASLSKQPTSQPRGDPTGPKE

Large T antigen = Large T antigen (Simian virus 40, UniProt P03070); assay type: functional, Betapolyomavirus macacae;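 note: Confirmatory-stage PubChem screen for compounds that inhibit SV40 T antigen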
Large T antigen, sequence (P03070 whole entry): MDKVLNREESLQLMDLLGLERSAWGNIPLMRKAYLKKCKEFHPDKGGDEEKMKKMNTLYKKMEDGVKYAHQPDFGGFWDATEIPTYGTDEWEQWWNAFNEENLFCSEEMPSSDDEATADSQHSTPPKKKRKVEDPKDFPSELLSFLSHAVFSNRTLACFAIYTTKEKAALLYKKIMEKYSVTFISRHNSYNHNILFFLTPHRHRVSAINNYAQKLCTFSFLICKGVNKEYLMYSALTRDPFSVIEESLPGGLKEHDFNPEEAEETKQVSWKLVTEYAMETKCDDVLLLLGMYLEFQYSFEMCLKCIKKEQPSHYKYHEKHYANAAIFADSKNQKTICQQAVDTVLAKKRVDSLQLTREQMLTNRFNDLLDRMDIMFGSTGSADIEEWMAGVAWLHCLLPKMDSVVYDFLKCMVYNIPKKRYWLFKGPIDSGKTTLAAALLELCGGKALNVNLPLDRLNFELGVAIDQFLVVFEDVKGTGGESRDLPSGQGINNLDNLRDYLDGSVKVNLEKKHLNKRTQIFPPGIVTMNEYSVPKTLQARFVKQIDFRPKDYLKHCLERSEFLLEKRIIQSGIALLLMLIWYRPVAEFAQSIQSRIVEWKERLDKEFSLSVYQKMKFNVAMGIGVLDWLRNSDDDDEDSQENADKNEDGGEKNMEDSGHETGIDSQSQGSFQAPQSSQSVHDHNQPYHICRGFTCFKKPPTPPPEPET

[2] = inhibitors of intracellular T. cruzi replication, confirmation, NIH3T3 host cells, beta-gal luminescence (AID 2044); assay type: functional, cell-based;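 note: intracellular parasites grown in NIH/3T3 mouse fibroblasts as host cells; luminescent beta-galactosidase reporter signal from transgenic T. cruzi replicating inside host cells; inhibitors lower the luminescence signal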
Cytochrome P450 2C19 = Cytochrome P450 2C19 (Homo sapiens, UniProt P33261); assay: Cytochrome panel assay with activity outcomes. Panel member name: p450-cyp2c19 Compounds with AC50 equal or less than 10 uM are considered active; assay type: functional; details: read-out: AC50
Cytochrome P450 2C19, sequence (P33261 whole entry): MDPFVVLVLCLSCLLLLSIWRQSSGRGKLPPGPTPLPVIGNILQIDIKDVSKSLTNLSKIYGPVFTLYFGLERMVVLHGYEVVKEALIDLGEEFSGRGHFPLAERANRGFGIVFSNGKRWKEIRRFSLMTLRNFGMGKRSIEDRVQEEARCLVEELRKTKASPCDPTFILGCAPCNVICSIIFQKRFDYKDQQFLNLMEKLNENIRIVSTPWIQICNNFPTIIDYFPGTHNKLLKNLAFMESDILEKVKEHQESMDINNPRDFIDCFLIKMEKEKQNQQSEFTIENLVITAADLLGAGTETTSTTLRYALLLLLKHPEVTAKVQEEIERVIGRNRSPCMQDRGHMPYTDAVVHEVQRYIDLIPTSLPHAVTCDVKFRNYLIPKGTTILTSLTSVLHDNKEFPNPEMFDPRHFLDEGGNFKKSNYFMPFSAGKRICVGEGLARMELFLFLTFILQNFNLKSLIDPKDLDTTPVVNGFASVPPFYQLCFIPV

[3] = test system: Streptococcus sp. 'group A'; assay: growth inhibition of control SK(-) GAS strain, dose response, counter-screen for streptokinase expression inhibitor project, luminescence, kanamycin, BacTiterGlo, confirmation (AID 1900); assay type: functional, organism-based
Nonstructural protein 1 = Nonstructural protein 1 (Influenza A virus, UniProt Q194T2); assay type: functional, Influenza A virus (A/California/07/2009(H1N1))
Nonstructural protein 1, sequence (Q194T2 whole entry): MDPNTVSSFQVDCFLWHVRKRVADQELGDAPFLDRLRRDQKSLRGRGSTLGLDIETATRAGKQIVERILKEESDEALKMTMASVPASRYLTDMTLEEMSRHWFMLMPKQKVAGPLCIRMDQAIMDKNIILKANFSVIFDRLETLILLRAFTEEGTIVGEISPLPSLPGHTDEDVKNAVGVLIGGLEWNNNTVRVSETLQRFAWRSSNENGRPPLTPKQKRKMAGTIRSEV

[4] = growth suppression of beta-catenin-knockout colon cells, dose response, cell-based, HCT116, human colon tumor (AID 1045); assay type: functional;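 note: HCT116 colon tumor cells with beta catenin knocked out; cells exposed to compound for 60 hours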
[5] = target: Heat shock protein HSP 90-alpha (Homo sapiens, UniProt P07900); assay type: functional, organism-based
[6] = target: T2, Short transient receptor potential channel 4 (Mus musculus, UniProt Q9QUQ5); assay: mouse TRPC4 channel inhibitors, dose response, cell-based, HEK293 TRPC4/mu-opioid, Fluo-4 calcium (AID 434942); assay type: functional;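 note: potency of inhibitors blocking the TRPC4 calcium response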
T2 sequence (Q9QUQ5 whole entry): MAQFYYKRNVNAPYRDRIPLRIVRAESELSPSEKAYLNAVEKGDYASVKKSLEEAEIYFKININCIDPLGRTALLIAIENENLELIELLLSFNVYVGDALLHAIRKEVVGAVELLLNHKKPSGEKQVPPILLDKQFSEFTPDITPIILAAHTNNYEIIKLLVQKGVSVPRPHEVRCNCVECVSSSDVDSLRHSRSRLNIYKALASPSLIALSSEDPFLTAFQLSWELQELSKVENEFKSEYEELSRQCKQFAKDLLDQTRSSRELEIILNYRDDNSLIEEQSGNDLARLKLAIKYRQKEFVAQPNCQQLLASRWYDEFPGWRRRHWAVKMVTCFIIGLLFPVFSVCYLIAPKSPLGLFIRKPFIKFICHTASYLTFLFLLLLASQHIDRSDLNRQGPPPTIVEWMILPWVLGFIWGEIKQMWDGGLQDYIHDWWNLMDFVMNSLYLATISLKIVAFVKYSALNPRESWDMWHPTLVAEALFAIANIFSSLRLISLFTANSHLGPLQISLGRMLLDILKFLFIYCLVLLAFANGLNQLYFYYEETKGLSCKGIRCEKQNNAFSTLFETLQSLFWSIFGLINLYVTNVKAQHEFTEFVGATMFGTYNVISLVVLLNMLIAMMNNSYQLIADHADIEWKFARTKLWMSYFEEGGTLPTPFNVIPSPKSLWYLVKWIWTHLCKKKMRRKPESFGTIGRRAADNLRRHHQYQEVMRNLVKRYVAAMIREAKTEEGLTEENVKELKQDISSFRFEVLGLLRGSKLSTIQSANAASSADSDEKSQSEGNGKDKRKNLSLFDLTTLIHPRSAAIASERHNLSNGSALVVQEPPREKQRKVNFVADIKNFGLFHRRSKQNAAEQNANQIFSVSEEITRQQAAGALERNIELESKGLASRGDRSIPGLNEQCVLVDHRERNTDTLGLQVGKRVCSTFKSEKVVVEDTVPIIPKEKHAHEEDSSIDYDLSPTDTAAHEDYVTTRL

[7] = target: T3, Mannose-6-phosphate isomerase (Homo sapiens, UniProt P34949); assay: human PMI inhibitors, high substrate, primary screen, biochemical, fluorescence intensity, high mannose 6-phosphate (AID 1220)
T3 sequence (P34949 whole entry): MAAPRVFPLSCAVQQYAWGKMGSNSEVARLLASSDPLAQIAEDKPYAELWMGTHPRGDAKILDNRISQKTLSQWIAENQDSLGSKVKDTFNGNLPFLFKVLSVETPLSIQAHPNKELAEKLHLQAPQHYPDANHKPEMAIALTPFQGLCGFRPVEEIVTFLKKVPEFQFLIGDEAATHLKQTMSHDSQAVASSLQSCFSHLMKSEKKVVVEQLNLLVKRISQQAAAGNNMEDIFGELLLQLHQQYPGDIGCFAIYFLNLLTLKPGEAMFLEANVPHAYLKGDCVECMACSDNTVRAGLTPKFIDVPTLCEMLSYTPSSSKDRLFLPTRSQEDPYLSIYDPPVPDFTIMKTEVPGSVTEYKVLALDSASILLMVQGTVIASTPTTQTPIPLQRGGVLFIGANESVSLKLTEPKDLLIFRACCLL

[8] = growth suppression of PTEN-null colon cells, dose response, cell-based, HCT116 PTEN knockout (AID 1047); assay type: functional;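 note: HCT116 colon tumor cells with PTEN knocked out; cells exposed to compound for 60 hours before readout; potency for loss of cell viability measured by luminescence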
[9] = cytotoxicity in HPDE-C7 cells, cell-based, fluorescence, HTS (AID 430); assay type: functional; details: Homo sapiens
Streptococcus = assay: Group A Streptococcus viability loss, dose response, counter-screen for streptokinase expression inhibitor project, luminescence, BacTiterGlo (AID 1915); assay type: functional, organism-based;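 note: potency for reduction of bacterial viability or growth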
[10] = inhibitors of firefly luciferase expression or activity, dose response, H4 neuroglioma cells, luminescence (AID 1990); assay type: functional, cell-based
[11] = inhibitors of SNCA 5'UTR-driven reporter translation, confirmation, H4 neuroglioma cells, luminescence (AID 1988); assay type: functional, cell-based
[12] = cytotoxicity toward NIH3T3 fibroblasts, dose response, counter-screen, cell-based, ATP luminescence, mouse fibroblasts (AID 2010); assay type: functional;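 note: cells exposed to compound for about 90 hours before reading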
[13] = cytotoxicity in KRAS-transformed pancreatic duct cells, primary screen, cell-based, fluorescence, HTS (AID 431); assay type: functional; details: Homo sapiens;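 note: cell line used: HPDE-C7K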
[14] = Luminescence Cell-Based Dose Response HTS to Identify Inhibitors of 5'UTR Stem-Loop Driven Prion Protein mRNA Translation in H4 Neuroglioblastoma Cells. [Related pubchem assays: 1827 (Project Summary), 1813 (Primary HTS)]; assay type: functional

Induced myeloid leukemia cell differentiation protein Mcl-1, sequence (Q07820 whole entry): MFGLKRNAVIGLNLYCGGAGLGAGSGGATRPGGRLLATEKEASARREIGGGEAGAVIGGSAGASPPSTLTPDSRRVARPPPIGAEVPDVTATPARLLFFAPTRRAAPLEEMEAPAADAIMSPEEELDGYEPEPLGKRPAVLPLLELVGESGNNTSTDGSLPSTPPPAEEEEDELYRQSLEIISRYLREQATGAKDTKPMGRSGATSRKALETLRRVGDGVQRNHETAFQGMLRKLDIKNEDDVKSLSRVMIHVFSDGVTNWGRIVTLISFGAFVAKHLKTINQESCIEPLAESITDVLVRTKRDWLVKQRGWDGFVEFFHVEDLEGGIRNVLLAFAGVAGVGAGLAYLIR

With `Cc1ccccc1OCC(=O)OCC(=O)Nc1ncc(Cl)c(C)c1Cl` the IC50 [1] was 15.7 µM (not active) and the IC50 (Bcl-2-like protein 1) was 30.4 µM (not active).
In the case of `O=C1NC(=O)N(c2cccc(Cl)c2)C(=O)/C1=C\c1ccc(Sc2nc3ccccc3[nH]2)o1`, the IC50 [1] is reported as 8.64 µM (active), the IC50 (Protein Tat) is reported as > 100 µM (active) and the IC50 (Large T antigen) is reported as 66.2 µM (active). The IC50 (Bcl-2-like protein 1) was > 12.1 µM (not active).
With `Oc1c(CN2CCCCC2)cc(Br)c2cccnc12` the EC50 [2] was 1.16 µM (active), the AC50 (Cytochrome P450 2C19) was 39.8 µM (inconclusive) and the EC50 [3] was 3.42 µM (active). For the same molecule, the IC50 (Nonstructural protein 1) was 3.55 µM (active), the EC50 [4] was 1.64 µM (active) and the AC50 [5] was 6.04 µM (active). For the same molecule, the EC50 [6] was 4.22 µM (active), the IC50 [7] was 15 µM (active) and the EC50 [8] was 1.95 µM (active). For the same molecule, the EC50 [9] was 7.75 µM (active), the EC50 (Streptococcus) was 10.7 µM (active) and the EC50 [10] was 5.98 µM (active). For the same molecule, the EC50 [11] was 4.28 µM (active), the EC50 [12] was 6.38 µM (active) and the EC50 [13] was 10.4 µM (active). For the same molecule, the EC50 [14] was 1.63 µM (active).
